Measured values taken from ChEMBL document CHEMBL1909046, “DrugMatrix in vitro pharmacology data”.

Assays:
[1] = molecular target: T1, C-X-C chemokine receptor type 1 (Homo sapiens, UniProt P25024); note: in other assays of this panel Not Active means under 50% inhibition at 10 µM
T1 sequence (P25024 whole entry): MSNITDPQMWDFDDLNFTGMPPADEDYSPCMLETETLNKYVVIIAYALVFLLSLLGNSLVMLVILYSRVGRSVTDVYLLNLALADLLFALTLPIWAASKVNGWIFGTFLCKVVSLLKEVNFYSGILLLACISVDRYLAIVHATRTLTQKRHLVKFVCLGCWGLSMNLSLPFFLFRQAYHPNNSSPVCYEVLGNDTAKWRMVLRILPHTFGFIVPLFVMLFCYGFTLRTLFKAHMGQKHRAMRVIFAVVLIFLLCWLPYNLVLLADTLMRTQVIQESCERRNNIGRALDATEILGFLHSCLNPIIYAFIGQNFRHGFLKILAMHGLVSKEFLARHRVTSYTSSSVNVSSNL

[2] = molecular target: T2, Type-2 angiotensin II receptor (Homo sapiens, UniProt P50052); assay type: cell-based; details: cho-k1; note: in other assays of this panel Not Active means under 50% inhibition at 10 µM
T2 sequence (P50052 whole entry): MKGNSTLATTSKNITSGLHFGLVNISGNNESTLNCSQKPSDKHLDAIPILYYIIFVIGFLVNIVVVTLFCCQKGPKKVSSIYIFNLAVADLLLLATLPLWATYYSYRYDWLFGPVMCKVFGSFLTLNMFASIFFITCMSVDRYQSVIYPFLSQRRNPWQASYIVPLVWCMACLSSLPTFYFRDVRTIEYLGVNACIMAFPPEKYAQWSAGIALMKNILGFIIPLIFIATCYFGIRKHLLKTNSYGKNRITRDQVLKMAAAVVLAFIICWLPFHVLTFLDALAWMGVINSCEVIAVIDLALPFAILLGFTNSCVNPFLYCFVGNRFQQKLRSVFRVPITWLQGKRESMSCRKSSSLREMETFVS

[3] = molecular target: T3, Angiotensin-converting enzyme (Oryctolagus cuniculus, UniProt P12822); assay type: tissue-based, Lung;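 note: enzymatic inhibition of angiotensin-converting enzyme measured with FAPGG as the substrate; in other assays of this panel Not Active means under 50% inhibition at 10 µM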
T3 sequence (P12822 whole entry): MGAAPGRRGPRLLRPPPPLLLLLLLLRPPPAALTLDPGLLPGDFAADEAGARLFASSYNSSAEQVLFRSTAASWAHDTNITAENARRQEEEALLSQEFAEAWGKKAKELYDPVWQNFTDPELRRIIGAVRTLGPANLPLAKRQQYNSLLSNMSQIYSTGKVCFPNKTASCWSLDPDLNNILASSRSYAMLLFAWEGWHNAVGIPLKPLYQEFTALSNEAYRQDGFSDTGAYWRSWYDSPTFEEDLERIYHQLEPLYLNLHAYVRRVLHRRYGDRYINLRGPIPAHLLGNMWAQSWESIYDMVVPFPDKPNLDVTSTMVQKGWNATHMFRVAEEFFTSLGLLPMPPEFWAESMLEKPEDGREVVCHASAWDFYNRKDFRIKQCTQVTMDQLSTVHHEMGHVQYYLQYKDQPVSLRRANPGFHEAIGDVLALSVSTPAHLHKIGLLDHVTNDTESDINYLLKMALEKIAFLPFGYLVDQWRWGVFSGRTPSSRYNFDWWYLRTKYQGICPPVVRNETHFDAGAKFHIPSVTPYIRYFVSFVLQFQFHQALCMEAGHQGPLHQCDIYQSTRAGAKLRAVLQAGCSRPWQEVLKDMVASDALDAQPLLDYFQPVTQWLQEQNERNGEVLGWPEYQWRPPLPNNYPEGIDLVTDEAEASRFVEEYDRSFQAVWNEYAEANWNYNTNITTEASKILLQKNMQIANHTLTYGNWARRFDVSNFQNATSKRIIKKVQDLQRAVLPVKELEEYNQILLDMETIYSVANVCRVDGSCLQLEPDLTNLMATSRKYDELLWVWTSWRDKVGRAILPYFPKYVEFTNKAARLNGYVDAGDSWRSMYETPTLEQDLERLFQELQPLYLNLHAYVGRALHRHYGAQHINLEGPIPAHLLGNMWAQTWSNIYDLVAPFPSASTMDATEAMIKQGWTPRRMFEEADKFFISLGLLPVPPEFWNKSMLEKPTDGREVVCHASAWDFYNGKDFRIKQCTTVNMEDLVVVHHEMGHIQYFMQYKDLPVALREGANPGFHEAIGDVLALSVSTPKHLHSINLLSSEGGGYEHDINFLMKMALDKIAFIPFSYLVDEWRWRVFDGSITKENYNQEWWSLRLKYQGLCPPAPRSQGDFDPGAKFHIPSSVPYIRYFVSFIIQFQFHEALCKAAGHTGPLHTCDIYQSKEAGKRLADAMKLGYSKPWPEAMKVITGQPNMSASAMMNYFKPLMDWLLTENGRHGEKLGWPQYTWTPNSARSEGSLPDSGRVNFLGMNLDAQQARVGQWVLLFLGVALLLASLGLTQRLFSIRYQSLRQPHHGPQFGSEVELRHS

[4] = molecular target: Vascular endothelial growth factor receptor 1 (Homo sapiens, UniProt P17948); assay: biochemical; assay type: cell-based, HUVEC; details: huvec; note: in other assays of this panel Not Active means under 50% inhibition at 10 µM
[5] = DRUGMATRIX: Serotonin (5-Hydroxytryptamine) 5-HT3 radioligand binding (ligand: [3H] GR-65630); assay type: cell membranes, Membrane; details: hek293; Not Active = under 50% inhibition at 10 µM
[6] = DRUGMATRIX: Phosphodiesterase PDE3 enzyme inhibition (substrate: [3H]cAMP + cAMP); assay type: tissue-based, Homo sapiens; details: platelet; Not Active = under 50% inhibition at 10 µM
Adenosine receptor A1 = molecular target: T4, Adenosine receptor A1 (Homo sapiens, UniProt P30542); assay type: cell membranes, CHO, Membrane; details: cho
T4 sequence (P30542 whole entry): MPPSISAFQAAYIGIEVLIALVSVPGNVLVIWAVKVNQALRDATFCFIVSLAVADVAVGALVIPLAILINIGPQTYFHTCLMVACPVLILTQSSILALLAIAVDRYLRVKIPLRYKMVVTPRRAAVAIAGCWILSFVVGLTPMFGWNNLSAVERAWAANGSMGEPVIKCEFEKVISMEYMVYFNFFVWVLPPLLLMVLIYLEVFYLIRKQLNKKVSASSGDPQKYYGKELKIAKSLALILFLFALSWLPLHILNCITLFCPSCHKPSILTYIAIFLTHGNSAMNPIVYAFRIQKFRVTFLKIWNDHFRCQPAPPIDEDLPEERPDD

Sequence of Vascular endothelial growth factor receptor 1 (P17948 whole entry): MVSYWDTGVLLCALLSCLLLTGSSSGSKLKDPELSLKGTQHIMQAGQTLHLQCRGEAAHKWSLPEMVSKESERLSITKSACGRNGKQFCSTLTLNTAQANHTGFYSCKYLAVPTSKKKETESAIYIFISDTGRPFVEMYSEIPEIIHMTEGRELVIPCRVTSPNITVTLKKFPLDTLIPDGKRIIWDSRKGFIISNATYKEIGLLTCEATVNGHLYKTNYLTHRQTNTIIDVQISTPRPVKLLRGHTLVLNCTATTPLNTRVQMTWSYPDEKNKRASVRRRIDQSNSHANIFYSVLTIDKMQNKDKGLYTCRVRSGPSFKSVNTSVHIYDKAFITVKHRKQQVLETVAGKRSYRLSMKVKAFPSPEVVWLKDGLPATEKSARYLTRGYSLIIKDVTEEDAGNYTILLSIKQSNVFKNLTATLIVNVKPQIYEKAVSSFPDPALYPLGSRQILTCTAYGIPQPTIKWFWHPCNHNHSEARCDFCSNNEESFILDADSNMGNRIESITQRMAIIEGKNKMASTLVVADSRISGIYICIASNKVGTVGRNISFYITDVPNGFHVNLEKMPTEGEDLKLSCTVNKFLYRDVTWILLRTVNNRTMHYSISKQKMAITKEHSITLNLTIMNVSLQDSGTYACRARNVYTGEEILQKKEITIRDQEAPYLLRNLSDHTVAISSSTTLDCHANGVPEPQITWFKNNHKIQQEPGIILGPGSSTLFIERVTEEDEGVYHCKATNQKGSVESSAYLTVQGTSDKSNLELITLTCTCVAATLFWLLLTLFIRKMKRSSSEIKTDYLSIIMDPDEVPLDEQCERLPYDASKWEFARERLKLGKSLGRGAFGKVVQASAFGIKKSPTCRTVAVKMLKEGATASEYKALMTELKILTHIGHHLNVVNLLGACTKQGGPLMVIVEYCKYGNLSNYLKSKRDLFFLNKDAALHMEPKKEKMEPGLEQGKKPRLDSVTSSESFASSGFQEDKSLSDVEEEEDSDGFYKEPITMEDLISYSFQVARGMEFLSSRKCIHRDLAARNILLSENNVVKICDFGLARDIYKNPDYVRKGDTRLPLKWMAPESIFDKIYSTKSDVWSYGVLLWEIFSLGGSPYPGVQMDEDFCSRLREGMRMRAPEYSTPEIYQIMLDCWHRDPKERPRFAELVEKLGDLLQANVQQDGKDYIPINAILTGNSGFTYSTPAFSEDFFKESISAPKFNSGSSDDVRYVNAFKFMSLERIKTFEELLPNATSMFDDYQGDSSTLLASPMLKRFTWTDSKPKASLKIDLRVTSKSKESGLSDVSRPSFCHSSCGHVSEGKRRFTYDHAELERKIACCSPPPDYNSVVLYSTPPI

O=C(c1ccccc1C(F)(F)F)N1CCC(Cc2ccccc2)CC1
Not Active: IC50 [1] | IC50 [2] | IC50 [3] | IC50 [4] | IC50 [5] | Ki [5] | IC50 [6] | Ki [6] | IC50 (Adenosine receptor A1)

O=C/C=C/c1ccccc1
Not Active: IC50 [1] | IC50 [2] | IC50 [3] | IC50 [4] | IC50 [5] | Ki [5] | IC50 [6] | Ki [6] | IC50 (Adenosine receptor A1)

Nc1ccc2c3c(cccc13)C(=O)NC2=O
Not Active: IC50 [1] | IC50 [2] | IC50 [3] | IC50 [4] | IC50 [5] | Ki [5] | IC50 [6] | Ki [6] | IC50 (Adenosine receptor A1)

COc1ccc(C(=O)N2CCCC2=O)cc1
Not Active: IC50 [1] | IC50 [2] | IC50 [3] | IC50 [4] | IC50 [5] | Ki [5] | IC50 [6] | Ki [6] | IC50 (Adenosine receptor A1)

O=c1cnn([C@@H]2O[C@H](CO)[C@@H](O)[C@H]2O)c(=O)[nH]1 [6-AZAURIDINE]
Not Active: IC50 [1] | IC50 [2] | IC50 [3] | IC50 [4] | IC50 [5] | Ki [5] | IC50 [6] | Ki [6] | IC50 (Adenosine receptor A1)

CC[C@H](C)[C@H]1O[C@]2(C=C[C@@H]1C)C[C@@H]1C[C@@H](C/C=C(\C)[C@@H](O[C@H]3C[C@H](OC)[C@@H](O[C@H]4C[C@H](OC)[C@@H](O)[C@H](C)O4)[C@H](C)O3)[C@@H](C)/C=C/C=C3\CO[C@@H]4[C@H](O)C(C)=C[C@@H](C(=O)O1)[C@]34O)O2.CO[C@H]1C[C@H](O[C@H]2[C@H](C)O[C@@H](O[C@@H]3/C(C)=C/C[C@@H]4C[C@@H](C[C@]5(C=C[C@H](C)[C@@H](C(C)C)O5)O4)OC(=O)[C@@H]4C=C(C)[C@@H](O)[C@H]5OC/C(=C\C=C\[C@@H]3C)[C@]54O)C[C@@H]2OC)O[C@@H](C)[C@@H]1O [ABAMECTIN]
Not Active: IC50 [1] | IC50 [2] | IC50 [3] | IC50 [4] | IC50 [5] | Ki [5] | IC50 [6] | Ki [6] | IC50 (Adenosine receptor A1)

NCCCC(O)(P(=O)(O)O)P(=O)(O)O [ALENDRONIC ACID]
Not Active: IC50 [1] | IC50 [2] | IC50 [3] | IC50 [4] | IC50 [5] | Ki [5] | IC50 [6] | Ki [6] | IC50 (Adenosine receptor A1)

Cc1nnc2n1-c1ccc(Cl)cc1C(c1ccccc1)=NC2 [ALPRAZOLAM]
Not Active: IC50 [1] | IC50 [2] | IC50 [3] | IC50 [4] | IC50 [5] | Ki [5] | IC50 [6] | Ki [6] | IC50 (Adenosine receptor A1)

Cn1c(=O)c2[nH]cnc2n(C)c1=O.Cn1c(=O)c2[nH]cnc2n(C)c1=O.NCCN [AMINOPHYLLINE]
Not Active: IC50 [1] | IC50 [2] | IC50 [3] | IC50 [4] | IC50 [5] | Ki [5] | IC50 [6] | Ki [6] | IC50 (Adenosine receptor A1)

CCC1(CCC(C)C)C(=O)NC(=O)NC1=O [AMOBARBITAL]
Not Active: IC50 [1] | IC50 [2] | IC50 [3] | IC50 [4] | IC50 [5] | Ki [5] | IC50 [6] | Ki [6] | IC50 (Adenosine receptor A1)

CC1(C)S[C@@H]2[C@H](NC(=O)[C@H](N)c3ccccc3)C(=O)N2[C@H]1C(=O)O [AMPICILLIN]
Not Active: IC50 [1] | IC50 [2] | IC50 [3] | IC50 [4] | IC50 [5] | Ki [5] | IC50 [6] | Ki [6] | IC50 (Adenosine receptor A1)

COc1ccc2cc3[n+](cc2c1OC)CCc1cc2c(cc1-3)OCO2.[Cl-] [BERBERINE CHLORIDE]
Not Active: IC50 [1] | IC50 [2] | IC50 [3] | IC50 [4] | IC50 [6] | Ki [6] | IC50 (Adenosine receptor A1)

COc1cc2nc(N3CCN(C(=O)c4ccco4)CC3)nc(N)c2cc1OC [PRAZOSIN]
Not Active: IC50 [1] | IC50 [2] | IC50 [3] | IC50 [4] | IC50 [6] | Ki [6] | IC50 (Adenosine receptor A1)
